Values of other authors as cited in patent US20170027865A1, “Dry Pharmaceutical Compositions for Topical Delivery of Oral Medications, Nasal Delivery and to Treat Ear Disorders” (CMPD LICENSING LLC, priority 2013, published 2017).

Tests used:
Clostridium perfringens = details: Clostridium perfringens; Gram: anaer
Acinetobacter baumannii = details: Gram: neg
[1] = test system: Acinetobacter calcoaceticus; details: Gram: neg
Acinetobacter lwoffii = details: Gram: neg
Bartonella bacilliformis = details: Gram: neg
Bordetella pertussis = details: Gram: neg
Brucella species = details: Brucella species; Gram: neg
Campylobacter jejuni = details: Gram: neg
Citrobacter diversus = details: Gram: neg
Citrobacter freundii = details: Gram: neg
Enterobacter aerogenes = details: Gram: neg
Enterobacter cloacae = details: Gram: neg
Enterobacter sakazakii = details: Gram: neg
Escherichia coli = details: Gram: neg
Francisella tularensis = details: Francisella tularensis; Gram: neg
Haemophilus ducreyi = details: Gram: neg
Haemophilus influenzae = details: Gram: neg
[2] = test system: Klebsiella (Calymmatobacterium) granulomatis; details: Gram: neg
Klebsiella oxytoca = details: Gram: neg
Klebsiella pneumoniae = details: Gram: neg
Legionella pneumophila = details: Legionella pneumophila; Gram: neg
Moraxella catarrhalis = details: Gram: neg
Morganella morganii = details: Gram: neg
Neisseria gonorrhoeae = details: Gram: neg
Neisseria meningitidis = details: Gram: neg
Proteus mirabilis = details: Gram: neg
Proteus vulgaris = details: Gram: neg
Providencia rettgeri = details: Gram: neg
Providencia stuartii = details: Gram: neg
Pseudomonas aeruginosa = details: Gram: neg
Pseudomonas fluorescens = details: Gram: neg
Rickettsiae = details: Rickettsiae; Gram: neg
Salmonella typhi = details: Gram: neg
Serratia marcescens = details: Gram: neg
Shigella boydii = details: Gram: neg
Shigella dysenteriae = details: Gram: neg
Shigella flexneri = details: Gram: neg
Shigella sonnei = details: Gram: neg
Vibrio cholerae = details: Gram: neg
Yersinia pestis = details: Yersinia pestis; Gram: neg
Corynebacterium jeikeium = details: Gram: pos
[3] = test system: Corynebacterium urealyticum; details: Gram: pos
[4] = test system: Methicillin Resistant Staph aureus (MRSA); details: Gram: pos
[5] = test system: Staphylococcus aureus (MSSA); details: Gram: pos
Streptococcus pyogenes = details: Gram: pos
Bacteroides fragilis = details: Gram: anaer
Clostridium difficile = details: Gram: anaer
Chlamydia pneumoniae = details: Gram: n/a
Chlamydia psittaci = details: Chlamydia psittaci; Gram: n/a
Chlamydia trachomatis = details: Gram: n/a
Mycoplasma pneumoniae = details: Gram: n/a
[6] = test system: Haemophilus parainfluenzae; details: Gram: neg
Diphtheroids = details: Gram: pos
Enterococcus faecalis = details: Gram: pos
Enterococcus faecium = details: Gram: pos
Peptostreptococcus = details: Gram: pos
[7] = test system: Staphylococcus epidermidis; details: Gram: pos
Streptococcus agalactiae = details: Gram: pos
Streptococcus pneumoniae = details: Gram: pos
[8] = test system: Viridans group streptococci; details: Gram: pos

Measured: Expected coverage

C/C(=C\C(=O)OCCCCCCCCC(=O)O)C[C@@H]1OC[C@H](C[C@@H]2O[C@H]2[C@@H](C)[C@H](C)O)[C@@H](O)[C@H]1O [Bactroban]
yes: [4] | [5] | Streptococcus pyogenes
not listed: Bacteroides fragilis | Clostridium difficile | Chlamydia pneumoniae | Chlamydia psittaci | Chlamydia trachomatis | Mycoplasma pneumoniae | [6] | Diphtheroids | Enterococcus faecalis | Enterococcus faecium | Peptostreptococcus | [7] | Streptococcus agalactiae | Streptococcus pneumoniae | [8]
no: all other assays above

CO/N=C(\C(=O)N[C@@H]1C(=O)N2C(C(=O)O)=C(CSc3nc(=O)c(=O)[nH]n3C)CS[C@H]12)c1csc(N)n1 [Ceftriaxone, ceftriaxone]
no: Clostridium difficile | Chlamydia pneumoniae | Chlamydia psittaci | Chlamydia trachomatis | Mycoplasma pneumoniae | Acinetobacter baumannii | [1] | Acinetobacter lwoffii | Bordetella pertussis | Campylobacter jejuni | Francisella tularensis | Legionella pneumophila | Pseudomonas aeruginosa | Rickettsiae | Vibrio cholerae | Yersinia pestis | Corynebacterium jeikeium | [3] | Diphtheroids | Enterococcus faecalis | Enterococcus faecium | [4]
not listed: Bartonella bacilliformis | Brucella species | Pseudomonas fluorescens
yes: all other assays above

O=C(O)c1cn(C2CC2)c2cc(N3CCNCC3)c(F)cc2c1=O [Ciprofloxacin, ciprofloxacin]
no: Bacteroides fragilis | Corynebacterium jeikeium | Enterococcus faecium | [4]
not listed: Clostridium perfringens | Acinetobacter baumannii | [1] | Acinetobacter lwoffii | Bordetella pertussis | Brucella species | Enterobacter cloacae | Enterobacter sakazakii | Haemophilus ducreyi | [2] | [3] | [5] | Streptococcus pyogenes | Clostridium difficile | Chlamydia psittaci | Chlamydia trachomatis | Mycoplasma pneumoniae | Diphtheroids | Enterococcus faecalis | Peptostreptococcus | Streptococcus agalactiae | Streptococcus pneumoniae | [8]
yes: all other assays above
